ChEMBL document CHEMBL1144919, “Synthesis of novel thrombin inhibitors. Use of ring-closing metathesis reactions for synthesis of P2 cyclopentene- and cyclohexenedicarboxylic acid derivatives” (J Med Chem, 2003)
pIC50: −log10 of the molar value.

Molecular target: Prothrombin (Homo sapiens, UniProt P00734)
Experiment: In vitro inhibitory concentration of compound against human thrombin

| Compound | pIC50 |
| --- | --- |
| Cc1ccccc1N(CC(=O)O)C(=O)C1=C(C(=O)NCc2ccc(C(=N)N)cc2)CCC1 | 3.92 |
| CCN(C(=O)C1=CCCC1C(=O)NCc1ccc(C(=N)N)cc1)c1cccc(OC)c1 (stereo not given) | 6.62 |
| N=C(N)c1ccc(CNC(=O)C2=C(C(=O)NC3CCCCC3)CCC2)cc1 | 4.72 |
| CCN(C(=O)C1=CCCC1C(=O)NCc1ccc(C(=N)N)cc1)c1cc(Cl)ccc1C (stereo not given) | 6.66 |
| CC1Cc2ccccc2N1C(=O)C1=CCCC1C(=O)NCc1ccc(C(=N)N)cc1 (stereo not given) | 5.47 |
| N=C(N)c1ccc(CNC(=O)C2CCCC=C2C(=O)Nc2ccccc2)cc1 (stereo not given) | 3.89 |
| CCN(C(=O)C1=CCCC1C(=O)NCc1ccc(C(=N)N)cc1)c1ccccc1OC (stereo not given) | 6.60 |
| CCN(C(=O)C1=C(C(=O)NCc2ccc(C(=N)N)cc2)CCC1)c1ccccc1 | 4.55 |
| CCN(C(=O)C1=CCCC1C(=O)NCc1ccc(C(=N)N)cc1)c1ccccc1C (stereo not given) | 6.17 |
| N=C(N)c1ccc(CNC(=O)C2=C(C(=O)N3CCc4ccccc43)CCC2)cc1 | < 3.89 |
| N=C(N)c1ccc(CNC(=O)C2CCC=C2C(=O)N2CCCCC2)cc1 (stereo not given) | 5.22 |
| CCN(C(=O)C1CCC=C1C(=O)NCc1ccc(C(=N)N)cc1)c1ccccc1 (stereo not given) | 4.80 |
| N=C(N)c1ccc(CNC(=O)C2CCCC=C2C(=O)N2CCCCC2)cc1 (stereo not given) | 4.42 |
| CCN(C(=O)C1=CCCC1C(=O)NCc1ccc(C(=N)N)cc1)c1cccc(Cl)c1 (stereo not given) | 6.41 |

Now from value to molecule:

| pIC50 | Compound |
| --- | --- |
| 6.57 | CCc1cccc(N(CC)C(=O)C2=CCCC2C(=O)NCc2ccc(C(=N)N)cc2)c1 (stereo not given) |
| 5.42 | CCN(C(=O)C1=CCCCC1C(=O)NCc1ccc(C(=N)N)cc1)c1ccccc1 (stereo not given) |
| 6.59 | CCc1cccc(N(C(=O)C2=CCCC2C(=O)NCc2ccc(C(=N)N)cc2)C2CCCCC2)c1 (stereo not given) |
| 5.34 | CCN(C(=O)C1=CCCCC1C(=O)NCc1ccc(C(=N)N)cc1)c1ccccc1C (stereo not given) |
| 6.68 | CCN(C(=O)C1=CCCC1C(=O)NCc1ccc(C(=N)N)cc1)c1cc(OC)cc(OC)c1 (stereo not given) |
| 6.03 | CCN(C(=O)C1=CCCC1C(=O)NCc1ccc(C(=N)N)cc1)c1ccc(OC)cc1 (stereo not given) |
| 6.46 | CCN(C(=O)C1=CCCC1C(=O)NCc1ccc(C(=N)N)cc1)c1ccccc1F (stereo not given) |
| 3.96 | N=C(N)c1ccc(CNC(=O)C2CCCC=C2C(=O)NCc2ccccc2)cc1 (stereo not given) |
| 6.20 | CCN(C(=O)C1=CCCC1C(=O)NCc1ccc(C(=N)N)cc1)c1cccc(F)c1 (stereo not given) |
| 5.11 | CCN(C(=O)C1CCC=C1C(=O)NCc1ccc(C(=N)N)cc1)c1cccc(OC)c1 (stereo not given) |
| 5.34 | N=C(N)c1ccc(CNC(=O)C2CCC=C2C(=O)N2CCc3ccccc32)cc1 (stereo not given) |
| 7.31 | COc1ccc(OC)c(N(C(=O)C2=CCCC2C(=O)NCc2ccc(C(=N)N)cc2)C2CCCCC2)c1 (stereo not given) |
| 4.03 | CCN(C(=O)C1CCC=C1C(=O)NCc1ccc(C(=N)N)cc1)c1ccccc1F (stereo not given) |
| 5.89 | Cc1ccccc1N(CC(=O)O)C(=O)C1=CCCC1C(=O)NCc1ccc(C(=N)N)cc1 (stereo not given) |
| 6.92 | CCN(C(=O)C1=CCC[C@H]1C(=O)NCc1ccc(C(=N)N)cc1)c1cccc(OC)c1 |
| 4.64 | CCN(C(=O)C1=C(C(=O)NCc2ccc(C(=N)N)cc2)CCC1)c1cc(Cl)ccc1C |
| 7.14 | CCN(C(=O)C1=CCCC1C(=O)NCc1ccc(C(=N)N)cc1)c1cc(OC)ccc1OC (stereo not given) |
| < 3.89 | N=C(N)c1ccc(CNC(=O)C2CCCC=C2C(=O)NC2CCCCC2)cc1 (stereo not given) |
| 6.01 | CCN(C(=O)C1=CCCC1C(=O)NCc1ccc(C(=N)N)cc1)c1ccccc1 (stereo not given) |
| 4.62 | CCN(C(=O)C1=C(C(=O)NCc2ccc(C(=N)N)cc2)CCC1)c1cccc(OC)c1 |
| 10.77 | N=C(N)NCCC[C@H](NC(=O)[C@@H]1CCCN1C(=O)C(N)Cc1ccccc1)C(=O)O (stereo in doubt) |
